System: oral mucositis induced by cis-platin 5 mg/kg and radiation 35 Gy (left cheek pouch)
Assay: Oral mucositis induced by a combination of cisplatin and acute radiation in hamsters, mucositis scoring (Example 4, SCI-04)
Format: in vivo, Syrian Golden Hamsters
Design: key: 0: Pouch completely healthy. No erythema or vasodilation.; 1: Light to severe erythema and vasodilation. No erosion of mucosa.; 2: Severe erythema and vasodilation. Erosion of superficial aspects of mucosa leaving denuded areas, but no frank ulceration. Decreased stippling of mucosa.; 3: Formation of off-white ulcers in one or more places. Ulcers may have a yellow/gray due to pseudomembrane. Cumulative size of ulcers should equal about ¼ of the pouch. Severe erythema and vasodilation.; 4: Cumulative seize of ulcers should equal about ½ of the pouch. Loss of pliability. Severe erythema and vasodilation.; 5: Virtually all of pouch is ulcerated. Loss of pliability (pouch can only partially be extracted from mouth)
Details: Group 2 (SCV-07 10 μg/kg, day -1 to day 20), individual animal scores, two scores per animal
Protocol: Forty Golden Syrian hamsters were prospectively randomized into four equally sized groups. Mucositis was induced on the left cheek pouch mucosa of golden Syrian hamsters by a single dose of cis-platin at 5 mg/kg given on day −1, and a single dose of radiation administered on day 0 at a dose of 35Gy. Beginning on day −1 and continuing once daily until day 20, SCV-07 was given by sub-cutaneous injection at doses of 10 μg/kg, 100 μg/kg or 1 mg/kg in a volume of 100 μL. Animals' activity and weight were evaluated daily. Beginning on day 6 and continuing on alternate days for the duration of the study, oral mucositis was evaluated using a standard scoring six point scale. The number of days of ulcerative mucositis was evaluated using a Chi-squared test of scores of ≧3 throughout the study, and the individual daily group scores were assessed with a Rank Sum Test.
The chemo-radiation model of oral mucositis in hamsters, developed by the Principal Investigator, has proven to be an accurate, efficient and cost-effective technique to provide a preliminary evaluation of anti-mucositis compounds. In this model, hamsters received a single dose of cis-platin at 5 mg/kg on day −1, followed by a single dose of radiation of 35 Gy to the left cheek pouch on day 0, rather than the single dose of 40 Gy on day 0 that is used in acute radiation studies. The course of mucositis in this model is very similar to the acute radiation model and results in peak mucositis scores approximately 16-18 days following radiation.
Hamsters received a single dose of cis-platin at 5 mg/kg on day −1 by intra-peritoneal injection, followed by a single dose of radiation of 35 Gy to the left cheek pouch on day 0. This was accomplished by anesthetizing the animals and everting the left buccal pouch, while protecting the rest of the animal's bodies with a lead shield. Test materials were given by sub-cutaneous injection once daily as detailed in Table 13. Mucositis was evaluated clinically starting on day 6, and continuing on alternate days until day 28. Test articles were given as from day −1 to day 20.
The grade of mucositis was scored, beginning day 6, and for every second day thereafter, through and including day 28. The effect on mucositis of each drug treatment compared to placebo was assessed according to the following parameters:
On each evaluation day, the number of animals with a blinded mucositis score of ≧3 in each drug treatment group was compared to the control group. Differences were compared on a cumulative basis and statistical significance was determined by chi-square analysis. Efficacy, in this analysis, is defined by a significant reduction in the number of days that a group of animals had ulcerations (scores 3) when compared to the control group.
For each evaluation day the scores of the control group were compared to those of the treated groups using non-parametric rank sum analysis. Treatment success was considered as a statistically significant lowering of scores in the treated group on 2 or more days from day 6 to day 28.
Forty (40) male Syrian Golden Hamsters were given an intraperitoneal injection of 5 mg/kg Cisplatin on day −1. On day 0 all animals were given an acute radiation dose of 35 Gy directed to their left buccal cheek pouch. This was accomplished by anesthetizing the animals and everting the left buccal pouch, while protecting the rest of the animals with a lead shield. Test materials were given by subcutaneous injection once daily as detailed in Table 13. Mucositis was evaluated clinically starting on Day 6, and continued on alternate days until day 28.
In this study, mucositis was induced with a combination of Cis-platin and radiation. Cis-platin was given as a single injection (IP) of 5 mg/kg on day −1. Radiation was given as a single focal dose of 35 Gy on day 0. Radiation was generated with a Philips 160 kVp (kilovolt potential) (18.75-ma) X-ray source at a focal distance of 30 cm, with a 3.0 mm hardened Al filtration system. […]

N[C@H](CCC(=O)N[C@@H](Cc1c[nH]c2ccccc12)C(=O)O)C(=O)O [SCV-07, γ-D-glutamyl-L-tryptophan]
2: Mucositis score, day 10 (day 10) | Mucositis score, day 12 (day 12) | Mucositis score, day 14 (day 14) | Mucositis score, day 16 (day 16) | Mucositis score, day 18 (day 18) | Mucositis score, day 20 (day 20) | Mucositis score, day 22 (day 22) | Mucositis score, day 24 (day 24) | Mucositis score, day 26 (day 26) | Mucositis score, day 28 (day 28)
